Test results as given in US6410533B1, “Antibacterial compounds” (Genzyme Corporation, priority 2000, dated 2002).
pIC50: −log10 of the molar value. ≈ marks a conversion by molar mass, not a printed value. Like-named read-outs stand apart in the source and are kept apart here.

Key:
[1] = test system: Staphylococcus aureus bacteria (ATCC 9604 SV); test: IC50 determination, growth inhibition by turbidity at 550 nm; type: cell-based; conditions: Staphylococcus aureus ATCC 9604 SV, turbidity at 550 nm after 3-5 h at 37° C.
Procedure: (§1) Minimal inhibitory concentrations (MICs) for Staphylococcus aureus bacteria (ATCC 9604 SV) were determined by broth microdilution methodology following National Committee for Clinical Laboratory Standards. In the MIC determinations, the compounds were incorporated into Mueller-Hinton broth (Becton Dickinson Microbiology systems, Cockeyville, Md.) at a series of concentrations. After the test organism was grown overnight in TB broth, the broths were adjusted to the turbidity equivalent to 0.05 McFarland standard. The suspensions were diluted twenty-fold into the broth containing the compounds. […] In the IC50 determination, the method was modified to allow the rapid growth of the organisms. The inoculum suspensions were adjusted to 0.1 McFarland standard and then diluted two-fold into the wells containing TB broth and the compounds. After three to five hours incubation at 37° C., the turbidity was measured at 550 nm and inhibitory activity was defined as the concentration of antimicrobial agent that inhibits 50% growth of the organism in the microdilution wells.

[2] = test system: methicillin-resistant Staphylococcus aureus (ATCC 33591); test: In vivo mouse intraperitoneal infection, mortality and % survivors over 7 days; conditions: single dose 1 h post inoculation, MRSA ATCC 33591 i.p., ICR mice
Procedure: Ten male ICR mice weighing 20 grams were inoculated intraperitoneally with an LD90-100 dose (2-3×10^7 CFU/mouse) of methicillin-resistant Staphylococcus aureus (ATCC 33591) in brain-heart infusion broth containing 5% mucin. Compounds were suspended in a vehicle containing 1% cremophore EL (Sigma) in normal saline and were administered subcutaneously in a volume of 0.4 ml per mouse either 1 hour following bacterial inoculation or 1 and 5 hours post inoculation. Animals receiving two doses of drug were injected subcutaneously in the hindquarter one hour post-innoculation and in the neck area, 5 hours post-innoculation. Deaths occurring during the subsequent 7 days are recorded. Mortality and % survivor endpoints are calculated.

[3] = test system: Staphylococcus aureus bacteria (ATCC 9604 SV); test: Minimal inhibitory concentration (MIC), broth microdilution; type: cell-based; conditions: 24 h at 37° C.
Procedure: as §1

[4] = Staphylococcus aureus ATCC 9604 SV

CC(C)(C)c1cc(NC(=O)Nc2cc(Cl)cc(Cl)c2)n(-c2ccc(C(F)(F)F)cc2)n1 [Compound 73]
pIC50 [1]: 7.08
In Vivo, single dose (% of mice rescued) ([2]; 2 mg/kg s.c.): 0% @ 2 mg/kg
In Vivo, single dose (% of mice rescued) ([2]; 20 mg/kg s.c.): 0% @ 20 mg/kg

O=C(Nc1cc(C(F)(F)F)cc(C(F)(F)F)c1)Nc1cc(Cc2ccccc2)nn1-c1ccc(C(F)(F)F)cc1 [Compound 74]
MIC [3, 4]: 3.43 µg/mL (≈ 5.99 µM)
pIC50 [1]: 6.90

O=C(Nc1ccc(Cl)c(C(F)(F)F)c1)Nc1cc(-c2ccccc2)nn1-c1ccc(C(F)(F)F)cc1 [Compound 75]
MIC [3, 4]: <0.787 µg/mL
pIC50 [1]: 7.02

O=C(Nc1cc(C(F)(F)F)cc(C(F)(F)F)c1)Nc1cc(-c2ccc(CN3CCOCC3)cc2)nn1-c1ccc(C(F)(F)F)cc1 [Compound 88]
MIC [3, 4]: >32.9 µg/mL
pIC50 [1]: 5.83

CN(C)Cc1cc(NC(=O)Nc2cc(C(F)(F)F)cc(C(F)(F)F)c2)n(-c2ccc(C(F)(F)F)cc2)n1 [Compound 90]
MIC [3, 4]: 13.5 µg/mL (≈ 25 µM)
pIC50 [1]: 5.36

O=C(Nc1cc(C(F)(F)F)cc(C(F)(F)F)c1)Nc1c(Br)cnn1-c1ccc(Br)cc1 [Compound 97, 1-(3,5-Bis-trifluoromethyl-phenyl)-3-[4-bromo-2-(4-bromo-phenyl)-2H-pyrazol-3-yl]-urea]
MIC ([3]; ATCC9604, Staphylococcus aureus ATCC 9604 SV, read-out: MIC): > 29.3 µg/mL
pIC50 ([1]; ATCC9604): 6.97

O=C(Nc1cc(Cl)cc(Cl)c1)Nc1c2c(nn1-c1ccc(Br)cc1)CCCC2 [Compound 105]
MIC [3, 4]: >24.0 µg/mL
pIC50 [1]: 5.49

O=C(Nc1cc(C(F)(F)F)cc(C(F)(F)F)c1)Nc1c2c(nn1-c1ccc(Br)cc1)CCCC2 [Compound 106]
MIC [3, 4]: >27.4 µg/mL
pIC50 [1]: 6.34

Cc1cc(-c2cc(NC(=O)Nc3cc(C(F)(F)F)cc(C(F)(F)F)c3)n(-c3ccc(Br)cc3)n2)no1 [Compound 115]
MIC [3, 4]: 1.72 µg/mL (≈ 3 µM)
pIC50 [1]: 6.40

O=C(Nc1cc(Cl)cc(Cl)c1)Nc1cc(-c2ccncc2)nn1-c1ccc(Br)cc1 [Compound 118]
MIC [3, 4]: 0.755 µg/mL (≈ 1.5 µM)
pIC50 [1]: 6.62

O=C(Nc1cc(C(F)(F)F)cc(C(F)(F)F)c1)Nc1cc(-c2ccncc2)nn1-c1ccc(Br)cc1 [Compound 119]
MIC [3, 4]: 0.855 µg/mL (≈ 1.5 µM)
pIC50 [1]: 6.79

Cc1cnc(NC(=O)Nc2cc(C(F)(F)F)cc(C(F)(F)F)c2)s1 [Compound 122]
MIC [3, 4]: >18.5 µg/mL
pIC50 [1]: 5.57

Cc1nc(NC(=O)Nc2cc(C(F)(F)F)cc(C(F)(F)F)c2)sc1C [Compound 123]
MIC [3, 4]: 1.15 µg/mL (≈ 3 µM)
pIC50 [1]: 6.28

C=CCCc1csc(NC(=O)Nc2cc(C(F)(F)F)cc(C(F)(F)F)c2)n1 [Compound 126]
MIC [3, 4]: 10.2 µg/mL (≈ 24.9 µM)
pIC50 [1]: 6.21

O=C(O)Cc1csc(NC(=O)Nc2cc(C(F)(F)F)cc(C(F)(F)F)c2)n1 [Compound 127]
MIC [3, 4]: >20.7 µg/mL
pIC50 [1]: 4.53

CCOC(=O)c1nc(NC(=O)Nc2cc(C(F)(F)F)cc(C(F)(F)F)c2)sc1C [Compound 128]
pIC50 [1]: 6.29
In Vivo, single dose (% of mice rescued) ([2]; 2 mg/kg s.c.): 0% @ 2 mg/kg
In Vivo, single dose (% of mice rescued) ([2]; 20 mg/kg s.c.): 0% @ 20 mg/kg

CCOC(=O)C(=O)c1csc(NC(=O)Nc2cc(C(F)(F)F)cc(C(F)(F)F)c2)n1 [Compound 129]
MIC [3, 4]: 11.4 µg/mL (≈ 25 µM)
pIC50 [1]: 6.03

O=C(Nc1cc(C(F)(F)F)cc(C(F)(F)F)c1)Nc1nc(Cc2ccccc2)cs1 [Compound 130]
MIC [3, 4]: 1.34 µg/mL (≈ 3.01 µM)
pIC50 [1]: 6.56

O=C(Nc1cc(C(F)(F)F)cc(C(F)(F)F)c1)Nc1nc(CCc2ccccc2)cs1 [Compound 131]
MIC [3, 4]: 23.4 µg/mL (≈ 50.9 µM)
pIC50 [1]: 6.44

O=C(Nc1cc(C(F)(F)F)cc(C(F)(F)F)c1)Nc1nc(-c2ccccc2)cs1 [Compound 132]
pIC50 [1]: 6.01

COc1ccccc1-c1csc(NC(=O)Nc2cc(C(F)(F)F)cc(C(F)(F)F)c2)n1 [Compound 133]
pIC50 [1]: 5.33

COc1cccc(-c2csc(NC(=O)Nc3cc(C(F)(F)F)cc(C(F)(F)F)c3)n2)c1 [Compound 134]
pIC50 [1]: 5.34

O=C(Nc1cc(C(F)(F)F)cc(C(F)(F)F)c1)Nc1nc(-c2cccc(F)c2)cs1 [Compound 135]
MIC [3, 4]: 1.35 µg/mL (≈ 3 µM)
pIC50 [1]: 6.97

O=C(Nc1cc(C(F)(F)F)cc(C(F)(F)F)c1)Nc1nc(-c2ccc(Br)cc2)cs1 [Compound 136]
pIC50 [1]: 6.88

Cc1sc(NC(=O)Nc2cc(C(F)(F)F)cc(C(F)(F)F)c2)nc1-c1ccc(Br)cc1 [Compound 137]
pIC50 [1]: 6.08

O=C(Nc1cc(C(F)(F)F)cc(C(F)(F)F)c1)Nc1nc(-c2ccc(Cl)cc2)cs1 [Compound 138, 1-(3,5-Bis-trifluoromethyl-phenyl)-3-[4-(4-chloro-phenyl)-thiazol-2-yl]-urea]
pIC50 ([1]; ATCC9604): 7.00

O=C(Nc1cc(C(F)(F)F)cc(C(F)(F)F)c1)Nc1nc(-c2ccc(F)cc2)cs1 [Compound 139]
pIC50 [1]: 7.00
In Vivo, single dose (% of mice rescued) ([2]; 2 mg/kg s.c.): 0% @ 2 mg/kg
In Vivo, single dose (% of mice rescued) ([2]; 20 mg/kg s.c.): 0% @ 20 mg/kg

Cc1ccc(-c2csc(NC(=O)Nc3cc(C(F)(F)F)cc(C(F)(F)F)c3)n2)cc1 [Compound 140]
pIC50 [1]: 6.19

COc1ccc(-c2csc(NC(=O)Nc3cc(C(F)(F)F)cc(C(F)(F)F)c3)n2)cc1 [Compound 141]
pIC50 [1]: 5.87

O=C(Nc1cc(C(F)(F)F)cc(C(F)(F)F)c1)Nc1nc(-c2ccc(OC(F)F)cc2)cs1 [Compound 142]
MIC [3, 4]: 6.22 µg/mL (≈ 12.5 µM)
pIC50 [1]: 6.63

O=C(Nc1cc(C(F)(F)F)cc(C(F)(F)F)c1)Nc1nc(-c2ccc(C(F)(F)F)cc2)cs1 [Compound 143]
MIC [3, 4]: 1.40 µg/mL (≈ 2.8 µM)
pIC50 [1]: 6.89

N#Cc1ccc(-c2csc(NC(=O)Nc3cc(C(F)(F)F)cc(C(F)(F)F)c3)n2)cc1 [Compound 144]
pIC50 [1]: 6.47

O=C(Nc1cc(C(F)(F)F)cc(C(F)(F)F)c1)Nc1nc(-c2ccc(CO)cc2)cs1 [Compound 145]
MIC [3, 4]: >23.1 µg/mL
pIC50 [1]: 5.43

O=C(Nc1cc(C(F)(F)F)cc(C(F)(F)F)c1)Nc1nc(-c2ccc(CCO)cc2)cs1 [Compound 146]
MIC [3, 4]: 2.71 µg/mL (≈ 5.7 µM)
pIC50 [1]: 5.79

O=C(Nc1cc(C(F)(F)F)cc(C(F)(F)F)c1)Nc1nc(-c2ccc(-c3ccccc3)cc2)cs1 [Compound 147]
pIC50 [1]: 6.10

O=C(Nc1cc(C(F)(F)F)cc(C(F)(F)F)c1)Nc1nc(-c2ccc(Cl)cc2Cl)cs1 [Compound 148]
pIC50 [1]: 6.40

O=C(Nc1cc(C(F)(F)F)cc(C(F)(F)F)c1)Nc1nc(-c2ccc(F)cc2F)cs1 [Compound 149]
pIC50 [1]: 6.06

O=C(Nc1cc(C(F)(F)F)cc(C(F)(F)F)c1)Nc1nc(-c2ccc(Cl)c(Cl)c2)cs1 [Compound 150]
pIC50 [1]: 6.39

O=C(Nc1cc(C(F)(F)F)cc(C(F)(F)F)c1)Nc1nc(-c2ccc3ccccc3c2)cs1 [Compound 153]
pIC50 [1]: 5.84

Cc1c(-c2csc(NC(=O)Nc3cc(C(F)(F)F)cc(C(F)(F)F)c3)n2)sc2ccc(Cl)cc12 [Compound 157]
pIC50 [1]: 6.48

O=C(Nc1cccc(Br)c1)Nc1nc(-c2ccc(Br)cc2)cs1 [Compound 159]
pIC50 [1]: 6.27

O=C(Nc1nc(-c2ccc(Cl)cc2)cs1)Nc1ccc(Br)cc1C(F)(F)F [Compound 162]
pIC50 [1]: 5.33

O=C(Nc1cc(Cl)cc(Cl)c1)Nc1nc(-c2ccc(Cl)cc2)cs1 [Compound 163]
pIC50 [1]: 6.74

O=C(Nc1cc(Cl)cc(Cl)c1)Nc1nc(-c2ccc(F)c(F)c2)cs1 [Compound 164]
pIC50 [1]: 5.58

O=C(Nc1ccc(F)c(C(F)(F)F)c1)Nc1nc(-c2ccc(Br)cc2)cs1 [Compound 166]
pIC50 [1]: 6.69

O=C(Nc1ccc(F)c(C(F)(F)F)c1)Nc1nc(-c2ccc(Cl)cc2)cs1 [Compound 167]
pIC50 [1]: 6.76

O=C(Nc1nc(-c2ccc(Cl)cc2)cs1)Nc1c(Cl)cc(Cl)cc1Cl [Compound 171]
pIC50 [1]: 6.03
